Paper PMC7765794 (Nutrients, 2020)

What was measured:
[1] = tested on: HL-60 cells; test: Cell viability (trypan blue), acridine orange staining and DNA fragmentation in HL-60 cells; type: cell-based, human; settings: for apoptosis in HL-60 cells (apoptotic bodies, DNA fragmentation): 50 μM baicalein or up to 75 µM myricetin, 24 h; for IC50: Homo sapiens, HL-60, after 24 h, viable cell count
Protocol: The human promyelocytic leukemia HL-60 and human acute Jurkat T cell leukemia cell lines were grown in 90% RPMI 1640 medium supplemented with 10% fetal bovine serum (FBS) at a temperature of 37 °C under a humidified 5% CO2 atmosphere. These cell lines were approved by short tandem repeat profiling, and the cells were passaged for no more than 2 months. Cells (2 × 10^6/mL) were seeded into 60-mm Petri dishes and incubated at 37 °C. The cells were harvested by treatment with 5 µM rottlerin. Viable cells were counted using the trypan blue exclusion method. The cell suspension was mixed on a slide with an equal volume of acridine orange solution (10 mg/mL). Green fluorescence was detected between 500 and 525 nm with a fluorescence microscope (Zeiss, Oberkochen, Germany). Cells were harvested and lysed overnight in digestion buffer (0.5% sarkosyl, 0.5 mg/mL proteinase K, 50 mM Tris-HCl, pH 8.0 and 10 mM ethylenediamine tetraacetic acid (EDTA) at 55 °C). Subsequently, cells were treated with 0.5 μg/mL RNase A for 2 h. Genomic DNA was extracted by phenol/chloroform/isoamyl alcohol extraction and analyzed by gel electrophoresis using 2% agarose.

[2] = tested on: Jurkat cells; test: Cell growth and apoptosis in Jurkat cells; type: cell-based, human; settings: for growth of Jurkat cells (in words): 100 µM baicalein or 75 µM myricetin (Figure S5); for apoptosis of Jurkat cells (in words): 100 µM baicalein or myricetin (Figure S5)
Protocol: The human promyelocytic leukemia HL-60 and human acute Jurkat T cell leukemia cell lines were grown in 90% RPMI 1640 medium supplemented with 10% fetal bovine serum (FBS) at a temperature of 37 °C under a humidified 5% CO2 atmosphere. These cell lines were approved by short tandem repeat profiling, and the cells were passaged for no more than 2 months.
Cells (2 × 10^6/mL) were seeded into 60-mm Petri dishes and incubated at 37 °C. The cells were harvested by treatment with 5 µM rottlerin. Viable cells were counted using the trypan blue exclusion method. The cell suspension was mixed on a slide with an equal volume of acridine orange solution (10 mg/mL). Green fluorescence was detected between 500 and 525 nm with a fluorescence microscope (Zeiss, Oberkochen, Germany).
Cells were harvested and lysed overnight in digestion buffer (0.5% sarkosyl, 0.5 mg/mL proteinase K, 50 mM Tris-HCl, pH 8.0 and 10 mM ethylenediamine tetraacetic acid (EDTA) at 55 °C). Subsequently, cells were treated with 0.5 μg/mL RNase A for 2 h. Genomic DNA was extracted by phenol/chloroform/isoamyl alcohol extraction and analyzed by gel electrophoresis using 2% agarose.
(C) and (D) Apoptotic bodies […]
(1 picture or pasted object on this page, not shown here)

[3] = biological target: T1, human ODC (Homo sapiens, UniProt P11926); test: ODC enzyme activity assay and inhibition study (CO2-L3K coupled spectrophotometric assay); type: biochemical; settings: for IC50: purified human ODC, 37 °C, 10 mM ornithine, 0.2 mM PLP, n = 3, read-out: IC50 to ornithine decarboxylase (ODC);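 as to all read-outs here: His-tagged human ODC expressed in Escherichia coli, activity followed as decarboxylation coupled via PEP carboxylation and malate formation to NADH analog oxidation, absorbance drop at 405 nm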
T1 construct: His-tag (N); made in house; host or cells: Escherichia coli JM109
T1 sequence (P11926 1-461): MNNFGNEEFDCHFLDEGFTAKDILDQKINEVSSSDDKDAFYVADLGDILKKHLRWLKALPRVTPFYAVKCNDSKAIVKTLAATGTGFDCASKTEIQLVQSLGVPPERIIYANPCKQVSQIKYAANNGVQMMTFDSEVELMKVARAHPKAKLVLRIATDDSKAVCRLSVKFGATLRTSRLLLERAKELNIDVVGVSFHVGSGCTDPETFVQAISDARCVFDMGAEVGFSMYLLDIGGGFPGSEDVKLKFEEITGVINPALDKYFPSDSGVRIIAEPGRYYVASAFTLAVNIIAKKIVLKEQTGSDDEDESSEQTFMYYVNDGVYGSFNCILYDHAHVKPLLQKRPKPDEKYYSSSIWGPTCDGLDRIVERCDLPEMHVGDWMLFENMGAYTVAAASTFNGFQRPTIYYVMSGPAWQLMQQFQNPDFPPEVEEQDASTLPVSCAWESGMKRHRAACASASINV

[4] = tested on: ODC-empty HL-60 cells; test: Cell growth and apoptosis in HL-60 cells with ODC-empty vector; type: cell-based, human; settings: 50 μM baicalein or 75 µM myricetin; for cell growth of ODC-empty HL-60 cells (in words): 24 h
Protocol: (§1) Cells (2 × 10^6/mL) were seeded into 60-mm Petri dishes and incubated at 37 °C. The cells were harvested by treatment with 5 µM rottlerin. Viable cells were counted using the trypan blue exclusion method. The cell suspension was mixed on a slide with an equal volume of acridine orange solution (10 mg/mL). Green fluorescence was detected between 500 and 525 nm with a fluorescence microscope (Zeiss, Oberkochen, Germany). The ODC-empty vector (pcDNA3-ODC-empty) and ODC-overexpressing vector (pcDNA3-ODC-WT) were transfected into parental HL-60 cells according to calcium phosphate-mediated transfection. Stably transfected cells were selected with the antibiotic G418 (400 μg/mL). After three weeks, the isolated G418-resistant clones were individually selected to analyze the protein expression of ODC in the cells. Cells were harvested and lysed overnight in digestion buffer (0.5% sarkosyl, 0.5 mg/mL proteinase K, 50 mM Tris-HCl, pH 8.0 and 10 mM ethylenediamine tetraacetic acid (EDTA) at 55 °C). Subsequently, cells were treated with 0.5 μg/mL RNase A for 2 h. Genomic DNA was extracted by phenol/chloroform/isoamyl alcohol extraction and analyzed by gel electrophoresis using 2% agarose.

[5] = tested on: ODC-WT HL-60 cells; test: Cell growth and apoptosis in ODC-overexpressing HL-60 cells; type: cell-based, human; settings: for apoptosis in ODC-WT HL-60 cells (in words): 50 μM baicalein or 75 µM myricetin
Protocol: as §1, with “The cells were harvested by treatment with 5 µM rottlerin.” left out

SMILES | apoptosis in HL-60 cells (apoptotic bodies, DNA fragmentation) [1] | IC50 [1] [µM] | growth of Jurkat cells (in words) [2] | apoptosis of Jurkat cells (in words) [2] | IC50 [3] [µM] | apoptosis in ODC-empty HL-60 cells (in words) [4] | cell growth of ODC-empty HL-60 cells (in words) [4] | apoptosis in ODC-WT HL-60 cells (in words) [5] | cell death / growth suppression in HL-60 cells (in words) ([1]; baicalein 0–70 μM) | Ki ([3]; with respect to substrate L-ornithine, noncompetitive fit, read-out: Ki(ornithine) against ODC) [µM] | cell growth of ODC-WT HL-60 cells (in words) ([5]; 50 μM baicalein, 24 h)
O=c1c(O)c(-c2cc(O)c(O)c(O)c2)oc2cc(O)cc(O)c12 [Myricetin] | induced apoptosis | ~75 | suppressed the growth of Jurkat cells | induced cellular apoptosis with DNA fragmentation | 7.3 | induced apoptotic bodies in ODC-empty cells | more effective than in ODC-WT HL-60 cells | but not in ODC-WT HL-60 cells | – | – | –
O=c1cc(-c2ccccc2)oc2cc(O)c(O)c(O)c12 [Baicalein, 5,6,7-trihydroxyflavone] | exhibited apoptosis | ~50 | suppressed the growth of Jurkat cells | induced cellular apoptosis with DNA fragmentation | 0.88 | appearance of apoptotic bodies and DNA fragmentation | growth arrest | normal cell morphology and slight DNA fragmentation | cell death was dose-dependent | 0.64 ± 0.18 | growth arrest
